Experimental data taken from the NIST ThermoML archive (doi:10.1016/j.jct.2015.08.022).
Numbers after ± are expanded uncertainties.

Columns and labels:
[1] = Crystal; DTA
[2] = Molar enthalpy of transition or fusion; details: Crystal; DSC

Row | Normal melting temperature [1] [°C] | Molar enthalpy of transition or fusion [2] [kcal/mol] | Structure (SMILES)
1 | 185.6 ± 0.4 | 5.98 ± 0.167 | Nc1ccc(C(=O)O)cc1 [4-aminobenzoic acid]
2 | 189.4 ± 0.4 | 6.48 ± 0.167 | NC(=O)c1cnccn1 [pyrazinecarboxamide]
3 | 170.4 ± 0.4 | 7.43 ± 0.191 | NNC(=O)c1ccncc1 [isonicotinic acid hydrazide]
